Molecular target: Plasma kallikrein (Human, UniProt P03952)
Experiment: Inhibitory Activity Assay
Experimental: Example compounds were evaluated for inhibition of the human activated kallikrein enzyme in two formats of an assay employing a fluorogenic peptide substrate. In one assay format, the concentrations of reagents were as follows: 20 mM Tris pH 7.5, 1 mM EDTA, 150 mM sodium chloride, 0.1% PEG-400, 0.1% Triton X-100, 500 pM activated kallikrein enzyme, 300 uM Pro-Phe-Arg-7-amido-4-methylcoumarin substrate. Prior to reaction initiation with substrate, enzyme and inhibitors were preincubated for 30 min at RT. After initiation with substrate, reactions were incubated for 10 min at RT and fluorescence emission at 460 nm from 380 nm excitation measured with a microplate reader. In another assay format, the concentrations of reagents were as follows: 20 mM Tris pH 7.5, 1 mM EDTA, 150 mM sodium chloride, 0.1% PEG-400, 0.1% Triton X-100, 5 pM activated kallikrein enzyme, 300 uM Pro-Phe-Arg-7-amido-4-methylcoumarin substrate. Prior to reaction initiation with substrate, enzyme and inhibitors were preincubated for 30 min at RT. After initiation with substrate, reactions were incubated for 18 h at RT and fluorescence emission at 460 nm from 380 nm excitation measured with a microplate reader.

Sequence of Plasma kallikrein (P03952 20-390 S143N limits assumed): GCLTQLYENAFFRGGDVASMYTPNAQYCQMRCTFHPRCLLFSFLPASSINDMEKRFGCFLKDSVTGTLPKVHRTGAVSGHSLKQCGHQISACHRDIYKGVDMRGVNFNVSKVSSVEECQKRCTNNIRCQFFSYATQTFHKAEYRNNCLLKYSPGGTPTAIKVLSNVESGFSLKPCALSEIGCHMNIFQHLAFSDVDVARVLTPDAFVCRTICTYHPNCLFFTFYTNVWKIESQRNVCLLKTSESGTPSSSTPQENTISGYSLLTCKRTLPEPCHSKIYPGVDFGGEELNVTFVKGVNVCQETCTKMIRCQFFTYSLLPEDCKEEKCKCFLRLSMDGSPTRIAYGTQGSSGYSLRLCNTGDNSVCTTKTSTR
Sequence of Plasma kallikrein (P03952 391-638 limits assumed): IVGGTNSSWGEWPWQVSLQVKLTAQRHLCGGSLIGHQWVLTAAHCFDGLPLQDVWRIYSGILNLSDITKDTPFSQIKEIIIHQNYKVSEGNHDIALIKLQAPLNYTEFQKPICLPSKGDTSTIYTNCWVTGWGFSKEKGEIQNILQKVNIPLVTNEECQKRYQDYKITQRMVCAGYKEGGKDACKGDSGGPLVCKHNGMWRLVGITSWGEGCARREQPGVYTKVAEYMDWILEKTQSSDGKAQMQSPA

SMILES | EC50 [nM]
O=C(NCc1ncn2ccc(Cl)c(F)c12)c1cn(Cc2cn3ccc(C4CC4)cc3n2)nn1 [US11352356, Compound I-148] | < 1
O=C(NCc1ncn2ccc(Cl)cc12)c1cnn(Cc2cn3ccc(C4CC4)c(F)c3n2)c1 [US11352356, Compound I-144] | < 1
CC(C)(C)OC(=O)C(C)(C)Oc1cc(C2CC2)cn2cc(Cn3cc(C(=O)NCc4ncn5ccc(Cl)c(F)c45)nn3)nc12 [US11352356, Compound I-212] | < 1

Continued, values first:

EC50 [nM] | SMILES
< 1 | COC(=O)c1cnn(-c2cc(C3CC3)cn3cc(Cn4cc(C(=O)NCc5ncn6ccc(Cl)c(F)c56)nn4)nc23)c1 [US11352356, Compound I-230]
< 1 | CCOC(COCc1cc(C2CC2)cn2cc(Cn3cc(C(=O)NCc4ncn5ccc(Cl)c(F)c45)nn3)nc12)OCC [US11352356, Compound I-301]
< 1 | CC(C)(C)[S+]([O-])NCCOCc1cc(C2CC2)cn2cc(Cn3cc(C(=O)NCc4ncn5ccc(Cl)c(F)c45)nn3)nc12 (stereo unspecified) [US11352356, Compound I-302]
